Data: patent US8415373B2, “Isoquinolinone derivatives as NK3 antagonists” (H. Lundbeck A/S, priority 2008, dated 2013)

Tests used:
human NK3 receptor = target: T1, human NK3 receptor (Homo sapiens, UniProt P29371); assay: NK3 receptor binding assay (SPA-based competition binding, 125I-NKB); conditions: read-out: Affinity (Ki/nM)
T1 construct: expressed in transfected cells
T1 sequence (P29371 1-465): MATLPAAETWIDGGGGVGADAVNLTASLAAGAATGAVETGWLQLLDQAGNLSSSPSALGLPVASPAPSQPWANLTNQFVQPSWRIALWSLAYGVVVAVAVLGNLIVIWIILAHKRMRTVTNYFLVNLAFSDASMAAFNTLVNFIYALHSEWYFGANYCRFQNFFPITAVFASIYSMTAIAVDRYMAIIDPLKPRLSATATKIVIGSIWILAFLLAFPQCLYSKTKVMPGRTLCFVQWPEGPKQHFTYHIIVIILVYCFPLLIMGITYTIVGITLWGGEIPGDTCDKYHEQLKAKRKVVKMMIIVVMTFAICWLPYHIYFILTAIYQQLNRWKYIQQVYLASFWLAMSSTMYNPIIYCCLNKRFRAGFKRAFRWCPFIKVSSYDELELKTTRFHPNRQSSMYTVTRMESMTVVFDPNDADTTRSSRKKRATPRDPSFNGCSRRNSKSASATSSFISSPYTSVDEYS
Protocol: Membranepreparation: BHK cells stably expressing the human NK3 receptor were seeded in harvesting plates in Dulbeccos MEM containing GlutaMax (862 mg/l), 1 mM sodium pyruvate, 10% fetal calf serum, 1% Pen/Strep, 1 mg/ml G418 and were grown at 34° C. in a humidified atmosphere containing 10% CO2. To increase receptor expression, 10 μM trichotatin A was added to the media 24 hours before harvest of the cells at a confluency of app 90%. Prior to the harvesting, the cells were washed twice with PBS without Mg^2+ og Ca^2+ and subsequently scrapped of in 10 ml PBS pr harvesting plate. The cell suspension were centrifuged at 1500×G in three minutes before resuspension in 15 mM Tris-HCl pH 7.5 buffer containing 2 mM MgCl2; 0.3 mM EDTA and 1 mM EGTA (buffer A). The cell suspension was homogenised and subsequently centrifuged at 40000×G in 30 minutes. The membrane-pellet was resuspended in buffer A containing 250 mM sucrose, aliquoted and stored at −80° C.
Affinity assay description: The assay was performed as a SPA-based competition-binding assay in a 50 mM Tris pH 7.4 assay buffer containing 120 mM NaCl, 3 mM MnCl2, 40 μg/ml bacitracin, 2 μg/ml Chymostatin, 1 μg/ml Phosphoramidon and 4 μg/ml Leupeptin. […] The assay plate was subsequently under agitation incubated for 90 min at RT. The plate was centrifugated 10 minutes at 500×G and counted in a topcounter 5 minutes pr well.

[1] = Nature reviews, 4, 967-975, 2005; cited from earlier work
schizophrenics = conditions: cited from earlier work
[2] = Nature reviews, 4, 967-975, 2005; cited from earlier work; remark: listed apart in the source

Compound	Ki (human NK3 receptor)	also measured
Cc1cc(Cn2c(C)c(C(=O)N[C@H](c3cccc(F)c3)C3CCC3)c3cccc(F)c3c2=O)[nH]n1 [Example 2p, 8-Fluoro-3-methyl-2-(5-methyl-2H-pyrazol-3-ylmethyl)-1-oxo-1,2-dihydro-isoquinoline-4-carboxylic acid [(S)-cyclobutyl-(3-fluoro-phenyl)-methyl]-amide]	28 nM	
Cc1nc(Cn2c(C)c(C(=O)N[C@H](c3cccc(F)c3)C3CCC3)c3cccc(F)c3c2=O)cs1 [Example 2ac, 8-Fluoro-3-methyl-2-(2-methyl-thiazol-4-ylmethyl)-1-oxo-1,2-dihydro-isoquinoline-4-carboxylic acid [(S)-cyclobutyl-(3-fluoro-phenyl)-methyl]-amide]	95 nM	
Cc1c(C(=O)N[C@H](c2ccc(F)c(F)c2)C2CCC2)c2cccc(F)c2c(=O)n1Cc1ncco1 [Example 4b, 8-Fluoro-3-methyl-2-oxazol-2-ylmethyl-1-oxo-1,2-dihydro-isoquinoline-4-carboxylic acid [(S)-cyclobutyl-(3,4-difluoro-phenyl)-methyl]-amide]	4 nM	
CCn1ccnc1Cn1c(C)c(C(=O)N[C@H](c2cccc(F)c2)C2CCC2)c2cccc(F)c2c1=O [Example 2ah, 2-(1-Ethyl-1H-imidazol-2-ylmethyl)-8-fluoro-3-methyl-1-oxo-1,2-dihydro-isoquinoline-4-carboxylic acid [(S)-cyclobutyl-(3-fluoro-phenyl)-methyl]-amide]	43 nM	
Cc1nonc1Cn1c(C)c(C(=O)N[C@H](c2cccc(F)c2)C2CCC2)c2cccc(F)c2c1=O [Example 2v, 8-Fluoro-3-methyl-2-(4-methyl-furazan-3-ylmethyl)-1-oxo-1,2-dihydro-isoquinoline-4-carboxylic acid [(S)-cyclobutyl-(3-fluoro-phenyl)-methyl]-amide]	6.6 nM	
Cc1c(C(=O)N[C@H](c2cccc(F)c2)C2CC2)c2cccc(F)c2c(=O)n1Cc1cc(F)ccc1F [Example 2d, 2-(2,5-Difluoro-benzyl)-8-fluoro-3-methyl-1-oxo-1,2-dihydro-isoquinoline-4-carboxylic acid [(S)-cyclopropyl-(3-fluoro-phenyl)-methyl]-amide]	180 nM	
Cc1c(C(=O)N[C@H](c2cccc(F)c2)C2CCC2)c2cccc(F)c2c(=O)n1Cc1cocn1 [Example 2t, 8-Fluoro-3-methyl-2-oxazol-4-ylmethyl-1-oxo-1,2-dihydro-isoquinoline-4-carboxylic acid [(S)-cyclobutyl-(3-fluoro-phenyl)-methyl]-amide]	12 nM	
Cc1c(C(=O)N[C@H](c2cccc(F)c2)C2CC2)c2cccc(F)c2c(=O)n1Cc1cccnc1 [Example 2b, 8-Fluoro-3-methyl-1-oxo-2-pyridin-3-ylmethyl-1,2-dihydro-isoquinoline-4-carboxylic acid [(S)-cyclopropyl-(3-fluoro-phenyl)-methyl]-amide]	350 nM	
Cc1c(C(=O)N[C@H](c2cccc(F)c2)C2CC2)c2cccc(F)c2c(=O)n1Cc1ccoc1 [Example 2a, 8-Fluoro-2-furan-3-ylmethyl-3-methyl-1-oxo-1,2-dihydro-isoquinoline-4-carboxylic acid [(S)-cyclopropyl-(3-fluoro-phenyl)-methyl]-amide]	28 nM	
Cc1cc(Cn2c(C)c(C(=O)N[C@H](c3cccc(F)c3)C3CCC3)c3cccc(F)c3c2=O)no1 [Example 2m, 8-Fluoro-3-methyl-2-(5-methyl-isoxazol-3-ylmethyl)-1-oxo-1,2-dihydro-isoquinoline-4-carboxylic acid [(S)-cyclobutyl-(3-fluoro-phenyl)-methyl]-amide]	33 nM	
CC[C@H](NC(=O)c1c(O)c(-c2ccccc2)nc2ccccc12)c1ccccc1 [talnetant]		solubility [1]: poor; effect on cognitive behaviour of schizophrenics in clinical trials (schizophrenics; Curr. Opion. Invest. Drug, 6, 717-721, 2005): ameliorate; bioavailability [2]: poor; blood-brain barrier penetration [2]: poor; clearance [2]: relatively high
Cc1nnc(Cn2c(C)c(C(=O)N[C@H](c3cccc(F)c3)C3CCC3)c3cccc(F)c3c2=O)[nH]1 [Example 2o, 8-Fluoro-3-methyl-2-(5-methyl-4H-[1,2,4]triazol-3-ylmethyl)-1-oxo-1,2-dihydro-isoquinoline-4-carboxylic acid [(S)-cyclobutyl-(3-fluoro-phenyl)-methyl]-amide]	120 nM	
Cc1c(C(=O)N[C@H](c2cccc(F)c2)C2CC2)c2cccc(F)c2c(=O)n1Cc1ccsc1 [Example 2g, 8-Fluoro-3-methyl-1-oxo-2-thiophen-3-ylmethyl-1,2-dihydro-isoquinoline-4-carboxylic acid [(S)-cyclopropyl-(3-fluoro-phenyl)-methyl]-amide]	7.8 nM	
CC(=O)N(C)C1(c2ccccc2)CCN(CCC[C@]2(c3ccc(Cl)c(Cl)c3)CCCN(C(=O)c3ccccc3)C2)CC1 [Osanetant, osanetant]		solubility [1]: poor; effect versus placebo in clinical trials, in particular on positive symptoms of psychosis (schizophrenics; Am. J. Psychiatry, 161, 2004, 975-984): superior to placebo; bioavailability [2]: poor; blood-brain barrier penetration [2]: poor; clearance [2]: relatively high
CC[C@H](NC(=O)c1c(C)n(Nc2ccccc2)c(=O)c2ccccc12)c1ccccc1 [Example 1a, 3-Methyl-1-oxo-2-phenylamino-1,2-dihydro-isoquinoline-4-carboxylic acid ((S)-1-phenyl-propyl)-amide]	200 nM	
